These results are taken from a flash point compilation (Sun et al. 2020).

Consider `CCC(C)C(C)CC` (stereo not given) [3,4-dimethylhexane], for which the flash point amounted to 6 °C.
To `CCC(C)CC(C)CC` (stereo not given) [3,5-dimethylheptane] belongs 15 °C; to `CCCC(C)CC(C)CC` (stereo not given) [3,5-dimethyloctane], 41 °C.
To `C=CCC#N` [3-butenenitrile] belongs 21 °C; to `SCCCCl` [3-chloro-1-propanethiol], 43 °C.
To `Cc1cccc(Cl)c1` [3-chlorotoluene] belongs 50 °C; to `CCCCCCCC(O)CC` (stereo not given) [3-decanol], 99 °C.
Compound `CCC#CCCCCCC` [3-decyne] registered a flash point of 52 °C.
The compound `C=CC(CC)CCC` (stereo not given) [3-ethyl-1-hexene] showed a flash point of 1 °C.
Next, `C=CC(CC)CC` [3-ethyl-1-pentene]: -17 °C; `CCCC(CC)C(C)(C)C` (stereo not given) [3-ethyl-2,2-dimethylhexane]: 38 °C.
To `CCC(C)(C(C)C)C(C)C` [3-ethyl-2,3,4-trimethylpentane] belongs 31 °C; to `CCC(C)(CC)C(C)C` [3-ethyl-2,3-dimethylpentane], 15 °C.
Turning to `CCC(C)(CC)CC` [3-ethyl-3-methylpentane], the flash point worked out at 3 °C.
For `CCC(S)(CC)CC` [3-ethyl-3-pentanethiol], the flash point came to 34 °C.
To `CCC(C)C(CC)CC` (stereo not given) [3-ethyl-4-methylhexane] belongs 15 °C; to `CCc1cccc(N)c1` [3-ethylaniline], 85 °C; to `CCC1CCC(=O)C1` (stereo not given) [3-ethylcyclopentanone], 46 °C.
Turning to `CCC(CC)CC` [3-ethylpentane], the flash point was -12 °C.
To `CCCCC(O)CC` (stereo not given) [3-heptanol] belongs 55 °C; to `CCC#CCCC` [3-heptyne], 5 °C.
`CCCC(S)CC` (stereo not given) [3-hexanethiol]: the flash point turned out to be 30 °C.
To `CCCC(O)CC` (stereo not given) [3-hexanol] belongs 45 °C; to `CCCC(=O)CC` [3-hexanone], 23 °C; to `CC(C)CCO` [3-methyl-1-butanol], 43 °C.
To `CCC(C)CCO` (stereo not given) [3-methyl-1-pentanol] belongs 58 °C.
Next, `CC(=O)C(C)C` [3-methyl-2-butanone]: -1 °C; `CCC(C)C(C)O` (stereo not given) [3-methyl-2-pentanol]: 41 °C; `CCC(C)C(C)=O` (stereo not given) [3-methyl-2-pentanone]: 12 °C.
Turning to `COc1cccc(C)c1` [3-methylanisole], the flash point turned out to be 52 °C.
To `CC(C)CC#N` [3-methylbutanenitrile] belongs 28 °C; to `CC1C=CCCC1` (stereo not given) [3-methylcyclohexene], -3 °C; to `CC1CCC(=O)C1` (stereo not given) [3-methylcyclopentanone], 34 °C.
Take `Cc1ccoc1` [3-methylfuran]: the flash point was -22 °C.
Next, `CCCCCCC(C)CC` (stereo not given) [3-methylnonane]: 41 °C; `CCCCCC(C)CC` (stereo not given) [3-methyloctane]: 24 °C.
Next, `CCC(C)CC` [3-methylpentane]: -32 °C; `CCCCCCC(=O)CC` [3-nonanone]: 63 °C; `CCCCCC(=O)CC` [3-octanone]: 51 °C.
Next, `CCC(N)CC` [3-pentanamine]: 2 °C.
The compound `CCC(O)CC` [3-pentanol] registered a flash point of 33 °C.
To `CCC(=O)CC` [3-pentanone] belongs 7 °C; to `Cc1cccnc1` [3-picoline], 36 °C.
On to `CC(C)(C)c1cccc(N)c1` [3-tert-butylaniline], for which the flash point was determined as 101 °C.
As for `CC(C)(C)C1CCC(=O)C1` (stereo not given) [3-tert-butylcyclopentanone], the flash point was 64 °C.
To `CC#CC(C)(C)C` [4,4-dimethyl-2-pentyne] belongs -10 °C; to `CCCC(C)(C)CCC` [4,4-dimethylheptane], 15 °C.
To `CCCCc1ccc(N)cc1` [4-butylaniline] belongs 102 °C; to `Cc1ccc(Cl)cc1` [4-chlorotoluene], 46 °C; to `CCc1ccc(C)c(C)c1` [4-ethyl-1,2-dimethylbenzene], 58 °C.
Next, `CCCC(CC)C(C)CC` (stereo not given) [4-ethyl-3-methylheptane]: 41 °C.
Compound `CCC1CCC(=O)CC1` [4-ethylcyclohexanone] came in with a flash point of 63 °C.
Next, `CCCCC(CC)CCC` (stereo not given) [4-ethyloctane]: 41 °C; `C=Cc1ccc(F)cc1` [4-fluorostyrene]: 35 °C; `Cc1ccc(F)cc1` [4-fluorotoluene]: 12 °C.
To `Cc1ccc(I)cc1` [4-iodotoluene] belongs 90 °C; to `CC(C)C1CCC(=O)CC1` [4-isopropylcyclohexanone], 65 °C.
Next, `C=CCC(C)C` [4-methyl-1-pentene]: -32 °C; `CC(C)CC(C)O` (stereo not given) [4-methyl-2-pentanol]: 41 °C; `COc1ccc(C)cc1` [4-methylanisole]: 53 °C.
On to `CC1CC=CCC1` (stereo not given) [4-methylcyclohexene], for which the flash point was -1 °C.
Next, `CCCC(C)CCC` [4-methylheptane]: 5 °C.
`CCCCC(=O)CCC` [4-octanone] returned a flash point of 45 °C.
Next, `CCCC#CCCC` [4-octyne]: 18 °C; `C=CCCCO` [4-penten-1-ol]: 43 °C; `CC=Cc1ccc(OC)cc1` [4-propenylanisole]: 96 °C.
Next, `CCCc1ccc(N)cc1` [4-propylaniline]: 103 °C; `CCCc1ccc(OC)cc1` [4-propylanisole]: 82 °C; `CCCC(CCC)CCC` [4-propylheptane]: 35 °C.
Next, `CCCc1ccc(O)cc1` [4-propylphenol]: 106 °C.
With `CCC(C)c1ccc(N)cc1` (stereo not given) [4-sec-butylaniline], the flash point turned out to be 108 °C.
To `CC(C)(C)c1ccc(N)cc1` [4-tert-butylaniline] belongs 102 °C.
Next, `CCCC#CCCCCCC` [4-undecyne]: 66 °C; `C=CC1CC=CCC1` (stereo not given) [4-vinyl-1-cyclohexene]: 16 °C.
To `CC=C1CC2C=CC1C2` (stereo not given) [5-ethylidene-2-norbornene] belongs 29 °C.
In turn, `C=CCCCCO` [5-hexen-1-ol] yielded a flash point of 47 °C.
Next, `C#CCCC(C)C` [5-methyl-1-hexyne]: -7 °C; `CC(=O)CCC(C)C` [5-methyl-2-hexanone]: 36 °C.
To `CC1CCCC(=O)CCC1` [5-methylcyclooctanone] belongs 71 °C.
Regarding `CCCCC#CCCCCC` [5-undecyne], the flash point came to 66 °C.
Next, `CCC#CCCCCCCCl` [10-chloro-3-decyne]: 86 °C; `NCC1CCCCC1` [(aminomethyl)cyclohexane]: 43 °C.
`CCN(CC)C(C)=O` [N,N-diethylacetamide]: the flash point was determined as 76 °C.
Next, `CN(C)C=O` [N,N-dimethylformamide]: 57 °C.
Next, `CCN(C)C` [N-ethyldimethylamine]: -36 °C; `CCNC=O` [N-ethylformamide]: 86 °C; `CCCCNC` [N-methylbutylamine]: 2 °C.
As to `CNC(C)C` [N-methylisopropylamine], the flash point was -20 °C.
`CN1CCOCC1` [N-methylmorpholine] registered a flash point of 14 °C.
Turning to `CCC(C)Nc1ccccc1` (stereo not given) [N-sec-butylaniline], the flash point came out at 93 °C.
To `C=CN(C)C(C)=O` [N-vinyl-N-methylacetamide] belongs 63 °C.
Next, `CC(=O)O` [aceticacid]: 40 °C; `CC(C)=O` [acetone]: -20 °C.
To `CC#N` [acetonitrile] belongs 2 °C.
Compound `CC(=O)c1ccccc1` [acetophenone] came in with a flash point of 77 °C.
To `C=CCN` [allylamine] belongs -28 °C; to `C=CCOC(=O)CCC` [allylbutanoate], 42 °C.
Next, `C=CCOc1ccccc1` [allylphenylether]: 63 °C; `C=CCSCCC` [allylpropylsulfide]: 29 °C.
`Nc1ccccc1` [aniline] displayed a flash point of 70 °C.
To `O=Cc1ccccc1` [benzaldehyde] belongs 62 °C.
For the compound `Sc1ccccc1` [benzenethiol], the flash point stood at 51 °C.
To `N#Cc1ccccc1` [benzonitrile] belongs 70 °C; to `NCc1ccccc1` [benzylamine], 65 °C.
Next, `ClCc1ccccc1` [benzylchloride]: 60 °C; `COCc1ccccc1` [benzylmethylether]: 53 °C; `CSCc1ccccc1` [benzylmethylsulfide]: 73 °C.
Next, `CCC(=O)OCc1ccccc1` [benzylpropanoate]: 96 °C.
`COCCNCCOC` [bis(2-methoxyethyl)amine] gave a flash point of 58 °C.
To `Brc1ccccc1` [bromobenzene] belongs 51 °C.
